Measured values: EP4741395A1, “NOVEL COMPOUND SENSITIVE TO NITROGEN MONOXIDE AND PHARMACEUTICAL COMPOSITION COMPRISING SAME” (Omniamed Co. Ltd, priority 2023, dated 2025)

Tests used:
splenocytes [1] = test: NO scavenging activity in Concanavalin A-treated splenocytes (Griess assay); assay type: cell-based, C57BL/6 mouse; details: Mus musculus, Splenocyte, Concanavalin A 5 µg/mL, 72 hours, read-out: NO Scavenging Activity (%) (Mean±SD)
Outline: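 Splenocytes from 8-week-old C57BL/6 mice at 5×10^6 cells/mL in RPMI 1640/10% FBS, stimulated with Concanavalin A (5 µg/mL) plus […] test composition added at plating. After 72 h culture, remaining NO in supernatant measured by Griess assay.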

splenocytes [2] = test: Inhibitory activity on cell proliferation in splenocytes (CCK-8 analysis); assay type: cell-based, C57BL/6 mouse; details: Mus musculus, Splenocyte, Concanavalin A 5 µg/mL, 72 hours, read-out: Inhibitory Activity on Cell Proliferation (%) (Mean±SD)
[3] = HPLC analysis of nitrogen monoxide sensitivity (release of the low-molecular-weight compound); assay type: physicochemical; details: NaNO2 / sulfuric acid, 1 hour, room temperature; FIGS. 2A to 2C
Protocol: It was checked whether the pharmaceutical composition sensitive to nitrogen monoxide including the compound according to each of the Examples is capable of releasing a low-molecular-weight compound having pharmaceutical activity by separating a nitrogen monoxide scavenger in an environment where nitrogen monoxide is present.
A sample for HPLC analysis was prepared as follows. 28 mg of NaNO2 (0.41 mmol, 16.4 equiv) was dissolved in 0.3 mL of water, and then the mixture solution was cooled to 0°C to 5°C. After introducing 0.2 mL of sulfuric acid (0.1 mmol, 4 equiv) to the mixture solution, 12.2 mg of Compound (4) (0.025 mmol, 1 equiv), which was prepared in Example 4, dissolved in 0.2 mL of acetone was introduced thereto. The mixture solution was stirred for 1 hour at room temperature. After the reaction was finished, water and dichloromethane were introduced to the reaction solution for extraction. The organic layer was separated, then dried with magnesium sulfate, and filtered. […]
Specifically, referring to FIG. 2A, the peak of Compound (4) of Example 4, which is the pharmaceutical composition sensitive to nitrogen monoxide, was detected at 14.2 minutes. On the other hand, referring to FIG. 2B, the peak of Compound (4) disappeared in an environment where excess nitrogen monoxide is present, and a peak detected at 7.7 minutes was generated.

IFN-γ = IFN-γ reduction activity in Concanavalin A-treated splenocytes (quantitative ELISA); assay type: cell-based, C57BL/6 mouse; details: Mus musculus, Splenocyte, Concanavalin A 5 µg/mL, 72 hours, read-out: IFN-γ Reduction Activity (%) (Mean±SD)
Outline: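 Splenocytes from 8-week-old C57BL/6 mice at 5×10^6 cells/mL in RPMI 1640 with 10% FBS, stimulated with Concanavalin A (5 µg/mL) plus compound added concentration-dependently. Supernatant IFN-γ measured by quantitative ELISA after 72 h.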

[4] = Hematological toxicity evaluation after single oral administration (routine blood test)
[5] = Efficacy on DSS induced ulcerative colitis (disease activity index); assay type: in vivo, mice
Protocol: In order to establish an ulcerative colitis model, 2.5% DSS powder was mixed with drinking water and provided ad libitum. The DSS powder-containing drinking water was supplied for 5 to 6 days of disease induction period, and after that, normal drinking water was supplied.
The administered compounds of Table 21 were administered orally once daily. Hematochezia, diarrhea and body weight loss were scored according to the criteria shown in the following Table 22, and the scores were summed to calculate a disease activity index (DAI), which is shown in FIG. 4.
Efficacy of Compound (4) on ulcerative colitis was verified in the same manner as in Experimental Example 10-1, except that Compound (4) was used instead of Compound (1), and DSS was administered until day 5, and the drug was administered from day 6.

Raw 264.7 cell line = test: NO scavenging activity in LPS-treated immune cells (Griess reagent); assay type: cell-based; details: Mus musculus, RAW264.7, Raw 264.7, LPS 500 ng/mL, 24 hours, read-out: NO Scavenging Activity (%) (Mean±SD)
in vivo = details: male, C57BL/6, mouse, in vivo, po
Protocol: Specifically, the experimental animals were twelve six-week-old C57BL/6 male mice. The experimental animals were housed in polycarbonate cages in groups of four, and had free access to food and water. The animal housing room was maintained at a temperature of 20±1°C and humidity of about 50±5%, with a constant 12-hour light/dark cycle. The experimental animals were acclimated to the animal room environment for one week, and then randomly divided into three groups of four animals each based on body weight.

[6] = Efficacy on collagen-induced rheumatoid arthritis (arthritis score); assay type: in vivo, DBA/1 male mice
Protocol: (§1) The experimental animals were 30 8-week-old DBA/1 male mice. […] The number of normal mice was set to five in order to minimize the number of experimental animals. The group administered with Compound (1) consisted of 5 to 6 mice, a minimal number required to obtain statistically meaningful data given the limited amount of the drug.
(§2) In order to establish a rheumatoid arthritis model, 100 µL of a mixture solution in which 2 mg/mL of chick type II collagen and 1 mg/mL of Complete Freund's Adjuvant (CFA) were mixed in a ratio of 1:1 was administered intradermally to each of the mouse tails. After 19 days, 100 µL of an emulsion in which 2 mg/mL of chick type II collagen and Incomplete Freund's Adjuvant (IFA) were mixed in a ratio of 1:1 was administered intradermally to each of the mouse tails.
The test substances of Table 23 were administered orally every day according to the drug dosing period and dosing frequency. As for the rheumatoid arthritis score (arthritis score), the score of each of the four paws was quantified according to the criteria shown in the following Table 24, and the individual scores were summed to generate the final score.
as §1, with “31” for “30”, “(11)” for “(1)”, “5” for “5 to 6”, “drug. Each of the remaining groups consisted of 7 mice, with two extra mice added to account for experimental error.” for “drug.”
as §2
Oral administration was conducted daily according to the dose, dosing frequency and dosing period of Table 25. Based on the criteria shown in Table 24, rheumatoid arthritis score for the four paws were quantified and summed to generate the score.

[7] = mouse, in vivo, po, 800 mg/kg
[8] = 200 mg/kg single oral dose, mice, two days after administration
[9] = 800 mg/kg single oral dose, mice, two days after administration

Row | SMILES | activity at 10 µM (splenocytes [1]) [%] | inhibition at 10 µM (splenocytes [2]) [%] | release of the low-molecular-weight compound in the presence of excess nitrogen monoxide (HPLC) [3] | activity at 10 µM (IFN-γ) [%] | hematological toxicity responses ([4]; single oral dose 200 mg/kg and 800 mg/kg, compared with the normal group) | efficacy in alleviating ulcerative colitis compared to tofacitinib ([5]; 25 mg/kg oral once daily, FIGS. 4 and 5) | efficacy on disease activity index (DAI) ([5]; DSS until day 5, drug from day 6, day 9 of the test, FIG. 5) | activity at 10 µM (Raw 264.7 cell line) [%] | MTD at 4 days (in vivo) [mg/kg] | rheumatoid arthritis-alleviating efficacy (arthritis score) ([6]; 10 mg/kg oral twice daily (BID), day 39 (p<0.05) and day 40 (p<0.01), FIG. 7) | rheumatoid arthritis-alleviating efficacy (arthritis score) ([6]; 40 mg/kg oral once daily, from day 33 after disease induction (p<0.01) to the end, FIG. 6) | WBC Differential Counting (LYM) (% of Normal) [4, 8] | WBC Differential Counting (NEU) (% of Normal) [4, 8] | WBC (% of Normal) [4, 9] | WBC Differential Counting (LYM) (% of Normal) [4, 9] | WBC Differential Counting (NEU) (% of Normal) [4, 9] | hematological toxicity [7]
1 | C[C@@H]1CCN(C(=O)CC#N)C[C@@H]1N(C)c1ncnc2c1ccn2C(=O)Nc1ccc(N(C)C)cc1N [Example 4, N-(2-amino-4-(dimethylamino)phenyl)-4-(((3R,4R)-1-(2-cyanoacetyl)-4-methylpiperidin-3-yl)(methyl)amino)-7H-pyrrolo[2,3-d]pyrimidine-7-carboxamide] | 91 ± 0.01 | 79.5 ± 6.67 | reacted with excess nitrogen monoxide to release tofacitinib | 98.9 ± 0.03 | No hematological toxicity responses were observed | comparable or more superior efficacy | statistically significant efficacy was observed | 68.7 ± 0.74 |  |  |  |  |  |  |  |  | 
2 | C[C@@H]1CCN(C(=O)CC#N)C[C@@H]1N(C)c1ncnc2[nH]ccc12 [Tofacitinib, tofacitinib] |  |  |  |  |  |  |  |  | 400 | Statistically significant rheumatoid arthritis-alleviating efficacy was observed | statistically significant rheumatoid arthritis-alleviating efficacy was observed | 81.1±31.3 % of Normal | 68.3±15.7 % of Normal | 62.1±4.7 % of Normal | 61.2±4.6 % of Normal | 56.4±7.9 % of Normal | hematological toxicity was observed
